Measured values as given in ChEMBL document CHEMBL5584243, “Discovery of JNJ-74856665: A Novel Isoquinolinone DHODH Inhibitor for the Treatment of AML” (J Med Chem, 2024).
pIC50: −log10 of the molar value. Values after ≈ are worked out from the molar mass of the structure shown.

Key:
[1] = Metabolic stability in mouse liver microsomes assessed as half life incubated upto 60 mins in presence of NADPH by LC-MS/MS analysis; type: ADME, Microsome
[2] = Equilibrium solubility of compound in PBS at pH 7 incubated for 2 to 5 days by HPLC analysis; type: physicochemical; conditions: time 2-5 day
[3] = Metabolic stability in human liver microsomes assessed as half life incubated upto 60 mins in presence of NADPH by LC-MS/MS analysis; type: ADME, Microsome
[4] = test system: MOLM-13; assay: Antiproliferative activity against human MOLM-13 cells assessed as inhibition of cell growth incubated for 72 hrs by CellTiter-Glo assay; type: functional, cell-based; conditions: MOLM-13, 72 h
[5] = Passive permeability across apical to basolateral side in dog MDCK-MDR1 cells; type: ADME, cell-based, Canis lupus familiaris
[6] = Lipophilicity, logD of compound; type: physicochemical; conditions: octanol/water
[7] = Equilibrium solubility of compound in PBS at pH 2 incubated for 2 to 5 days by HPLC analysis; type: physicochemical; conditions: time 2-5 day; for solubility thermodynamic: PBS
[8] = target: T1, Aryl hydrocarbon receptor (Homo sapiens, UniProt P35869); assay: Activation of AhR (unknown origin) at 1 to 10 uM; conditions: dose 1-10 µM
T1 sequence (P35869 whole entry): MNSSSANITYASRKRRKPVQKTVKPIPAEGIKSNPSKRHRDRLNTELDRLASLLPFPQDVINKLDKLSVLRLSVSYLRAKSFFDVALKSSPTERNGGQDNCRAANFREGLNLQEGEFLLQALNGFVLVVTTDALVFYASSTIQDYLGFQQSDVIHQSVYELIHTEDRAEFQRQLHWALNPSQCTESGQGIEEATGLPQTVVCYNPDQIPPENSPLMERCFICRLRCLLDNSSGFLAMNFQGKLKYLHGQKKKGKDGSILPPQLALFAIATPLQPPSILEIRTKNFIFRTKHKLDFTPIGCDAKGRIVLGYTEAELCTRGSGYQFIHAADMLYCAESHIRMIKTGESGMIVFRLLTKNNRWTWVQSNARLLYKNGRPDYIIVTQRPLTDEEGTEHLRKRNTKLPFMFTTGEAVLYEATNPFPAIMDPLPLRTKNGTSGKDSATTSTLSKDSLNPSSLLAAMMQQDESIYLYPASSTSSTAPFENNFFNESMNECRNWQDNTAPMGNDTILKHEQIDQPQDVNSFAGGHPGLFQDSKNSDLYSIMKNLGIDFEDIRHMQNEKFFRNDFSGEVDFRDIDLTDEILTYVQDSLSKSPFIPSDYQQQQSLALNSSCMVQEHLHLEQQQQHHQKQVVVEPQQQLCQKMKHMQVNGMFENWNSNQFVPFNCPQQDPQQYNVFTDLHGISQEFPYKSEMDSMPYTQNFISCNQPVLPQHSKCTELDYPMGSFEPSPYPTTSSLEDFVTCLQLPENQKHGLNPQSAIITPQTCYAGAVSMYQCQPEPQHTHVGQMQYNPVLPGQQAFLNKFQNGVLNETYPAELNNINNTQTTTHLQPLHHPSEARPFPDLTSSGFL

[9] = target: Dihydroorotate dehydrogenase (quinone), mitochondrial (Homo sapiens, UniProt Q02127); assay: Inhibition of recombinant human DHODH followed by DHO substrate by DCIP dye absorbance based spectrophotometric analysis
Sequence of Dihydroorotate dehydrogenase (quinone), mitochondrial (Q02127 whole entry): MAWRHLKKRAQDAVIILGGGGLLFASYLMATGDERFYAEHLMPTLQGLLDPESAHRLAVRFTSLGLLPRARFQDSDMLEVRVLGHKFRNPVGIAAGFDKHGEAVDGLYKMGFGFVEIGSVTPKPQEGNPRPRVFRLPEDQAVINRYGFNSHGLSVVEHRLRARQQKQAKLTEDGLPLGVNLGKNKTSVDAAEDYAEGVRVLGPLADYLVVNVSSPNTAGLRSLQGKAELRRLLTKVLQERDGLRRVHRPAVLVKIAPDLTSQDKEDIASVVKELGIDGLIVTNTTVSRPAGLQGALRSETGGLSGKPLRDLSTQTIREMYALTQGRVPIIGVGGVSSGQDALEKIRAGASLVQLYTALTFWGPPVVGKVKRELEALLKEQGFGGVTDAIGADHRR

[10] = Cmax in C57BL mouse at […] measured upto 24 hrs by LC-MS/MS analysis; type: ADME, organism-based; conditions: in vivo
[11] = Plasma protein binding in C57BL mouse at 1 uM incubated for 6.5 hrs by LC-MS/MS analysis; type: ADME, cell-free; conditions: read-out: PPB (converted)
[12] = Equilibrium solubility of compound in SGF at pH 1 using amorphous form of sample incubated for 2 to 5 days by HPLC analysis; type: ADME; conditions: time 2-5 day
[13] = Equilibrium solubility of compound in FaSSIF at pH 6.5 using amorphous form of sample incubated for 2 to 5 days by HPLC analysis; type: ADME; conditions: time 2-5 day
[14] = AUC (0 to infinity) in C57BL mouse at 2 mg/kg,iv measured upto 24 hrs by LC-MS/MS analysis; type: ADME, organism-based; conditions: in vivo
[15] = Oral bioavailability in C57BL mouse at 10 mg/kg measured upto 24 hrs by LC-MS/MS analysis; type: ADME, organism-based; conditions: in vivo
[16] = Half life in C57BL mouse at 2 mg/kg,iv measured upto 24 hrs by LC-MS/MS analysis; type: ADME, organism-based; conditions: in vivo
[17] = Volume of distribution at steady state in C57BL mouse at 2 mg/kg,iv measured upto 24 hrs by LC-MS/MS analysis; type: ADME, organism-based; conditions: in vivo, read-out: Vdss
[18] = Plasma protein binding in human at 1 uM incubated for 6.5 hrs by LC-MS/MS analysis; type: ADME, cell-free; conditions: read-out: PPB (converted)
[19] = Tmax in C57BL mouse at […] measured upto 24 hrs by LC-MS/MS analysis; type: ADME, organism-based; conditions: in vivo

SMILES | half-life [1] | solubility thermodynamic [2] | half-life [3] | pIC50 [4] | Papp A→B [5] | solubility thermodynamic [7] | also measured
CCn1c(CO)nn(-c2cc3c(C(C)C)cn(-c4ccc(F)cc4C)c(=O)c3cc2F)c1=O | > 3 h | 266 µM (≈ 121 µg/mL) | > 3 h | 9.17 | 48.2 ×10⁻⁶ cm/s | 25 µM (≈ 11.4 µg/mL) | logD [6]: 2.7
CCn1c(CO)nn(-c2cc3c(C(C)C)cn(-c4ccccc4C(F)F)c(=O)c3cc2F)c1=O | > 3 h | 11 µM (≈ 5.2 µg/mL) | 2.98 h | 9.25 | 39 ×10⁻⁶ cm/s | 228 µM (≈ 108 µg/mL) | –
CCn1c(CO)nn(-c2cc3c(C4(C)CC4)cn(-c4c(F)cccc4Cl)c(=O)c3cc2F)c1=O | – | – | – | 8.51 | – | – | –
CCn1c(CO)nn(-c2cc3c(C(C)C)cn(-c4ccccc4F)c(=O)c3cc2F)c1=O | > 3 h | 19 µM (≈ 8.37 µg/mL) | > 3 h | 8.68 | 30.1 ×10⁻⁶ cm/s | 19 µM (≈ 8.37 µg/mL) | –
CCn1c(CO)nn(-c2cc3c(C(C)C)cn(-c4cc(F)ccc4C)c(=O)c3cc2F)c1=O | > 3 h | 30 µM (≈ 13.6 µg/mL) | > 3 h | 9.07 | 45.9 ×10⁻⁶ cm/s | 30 µM (≈ 13.6 µg/mL) | –
CCn1c(CO)nn(-c2cc3c(C(C)C)cn(-c4cccc(F)c4C)c(=O)c3cc2F)c1=O | > 3 h | 189 µM (≈ 85.9 µg/mL) | > 3 h | 8.25 | 23.5 ×10⁻⁶ cm/s | 235 µM (≈ 107 µg/mL) | –
Cc1oncc1C(=O)Nc1ccc(C(F)(F)F)cc1 [LEFLUNOMIDE] | – | – | – | – | – | – | Activity [8]: Active
CCn1c(CO)nn(-c2nc(OC(C)C(F)(F)F)c(C(=O)Nc3c(F)cccc3Cl)cc2F)c1=O (configuration not stated) | – | < 4 µM | – | 9.80 | – | – | pIC50 [9]: 9.70
CCn1c(CO)nn(-c2cc3c(C(C)C)cn(-c4c(C)cccc4F)c(=O)c3cc2F)c1=O | > 3 h | 24 µM (≈ 10.9 µg/mL) | > 3 h | 9.16 | 47.4 ×10⁻⁶ cm/s | 23 µM (≈ 10.5 µg/mL) | –
CCn1c(CO)nn(-c2cc3c(C(C)C)cn(-c4ccccc4C(F)(F)F)c(=O)c3cc2F)c1=O | > 3 h | 39 µM (≈ 19.1 µg/mL) | > 3 h | 9.20 | 40.4 ×10⁻⁶ cm/s | – | Cmax [10]: 5700 ng/mL; fraction unbound at 6.5 h, 1 µM [11]: 0.067; solubility thermodynamic [12]: 17 µg/mL (≈ 34.7 µM); solubility thermodynamic [13]: 97 µg/mL (≈ 198 µM); AUC [14]: 71100 ng·h/mL; bioavailability [15]: 127%; half-life [16]: 4.3 h; Vd [17]: 1.2 L/kg; fraction unbound at 6.5 h, 1 µM [18]: 0.063; Tmax [19]: 1.3 h; solubility ([7]; buffer): Not Active
CCn1c(CO)nn(-c2cc3c(C(C)C)cn(-c4c(C)cnc(OC)c4Cl)c(=O)c3cc2F)c1=O | > 3 h | 21 µM (≈ 10.5 µg/mL) | > 3 h | 8.62 | 42.6 ×10⁻⁶ cm/s | 78 µM (≈ 39.2 µg/mL) | Cmax [10]: 4100 ng/mL; fraction unbound at 6.5 h, 1 µM [11]: 0.038; solubility thermodynamic [12]: < 5 µg/mL; solubility thermodynamic [13]: 16 µg/mL (≈ 31.9 µM); AUC [14]: 82500 ng·h/mL; bioavailability [15]: 109%; half-life [16]: 7 h; Vd [17]: 2.1 L/kg; fraction unbound at 6.5 h, 1 µM [18]: 0.059; Tmax [19]: 1.5 h
CCn1c(CO)nn(-c2cc3c(C(C)C)cn(-c4ccccc4Cl)c(=O)c3cc2F)c1=O | > 3 h | 155 µM (≈ 70.8 µg/mL) | > 3 h | 9.55 | 50.7 ×10⁻⁶ cm/s | 153 µM (≈ 69.9 µg/mL) | –
CCn1c(CO)nn(-c2cc3c([C@H](C)C(F)(F)F)cn(-c4ccccc4C)c(=O)c3cc2F)c1=O | > 3 h | 180 µM (≈ 88.3 µg/mL) | > 3 h | 9.23 | 20.3 ×10⁻⁶ cm/s | 164 µM (≈ 80.4 µg/mL) | –
C=C(C)c1cn(-c2c(F)cccc2Cl)c(=O)c2cc(F)c(-n3nc(CO)n(CC)c3=O)nc12 | – | – | – | 8.96 | – | – | –
CCn1c(CO)nn(-c2cc3c([C@@H](C)C(F)(F)F)cn(-c4ccccc4C)c(=O)c3cc2F)c1=O | > 3 h | 181 µM (≈ 88.8 µg/mL) | > 3 h | 9.38 | < 41 ×10⁻⁶ cm/s | 184 µM (≈ 90.2 µg/mL) | Cmax [10]: 4500 ng/mL; fraction unbound at 6.5 h, 1 µM [11]: 0.093; solubility thermodynamic [12]: < 5 µg/mL; solubility thermodynamic [13]: 41 µg/mL (≈ 83.6 µM); AUC [14]: 39000 ng·h/mL; bioavailability [15]: 98%; half-life [16]: 4 h; Vd [17]: 1.3 L/kg; fraction unbound at 6.5 h, 1 µM [18]: 0.1; logD [6]: 2.6; Tmax [19]: 1.5 h
CCn1c(CO)nn(-c2nc3c(C(C)C)cn(-c4c(F)cccc4Cl)c(=O)c3cc2F)c1=O | – | – | – | 9.36 | – | – | –
CCc1ccccc1-n1cc(C(C)C)c2cc(-n3nc(CO)n(CC)c3=O)c(F)cc2c1=O | 1.83 h | 157 µM (≈ 70.7 µg/mL) | > 3 h | 8.74 | 37.3 ×10⁻⁶ cm/s | 193 µM (≈ 86.9 µg/mL) | –
CCn1c(CO)nn(-c2cc3c(C(C)C)cn(-c4ccccc4OC)c(=O)c3cc2F)c1=O | > 3 h | 20 µM (≈ 9.05 µg/mL) | > 3 h | 9.00 | 25.1 ×10⁻⁶ cm/s | 19 µM (≈ 8.6 µg/mL) | –
